Experimental data reported in US20260306633A1, “A COMBINATION THERAPY FOR CANCER TREATMENT” (Purdue Research Foundation, priority 2023, published 2026).
“Also recorded” adds a separate entry of the source. Where two headings read alike, the source gives them in different places.

Key:
[1] = test system: TNBC BT-549 cells; test: Cell survival / cell inhibition (MTT cell cytotoxicity assay) after 24 h treatment with photosensitizer and/or chemotherapeutic agent, dark or light-irradiated; format: cell-based, human; details: for viability at 0.1 µM / viability at 0.01 µM: paclitaxel; for viability at 0.1 µM: high end of 10-100 nM, read-out: cell survival, drug only (end of decrease); for viability at 0.01 µM: low end of 10-100 nM, read-out: cell survival, drug only (start of decrease)
[2] = test system: human TNBC BT-549 cells; test: Fluorescence microscopy (Hoechst 33258) of cell morphology / cell death pathway; format: cell-based; details: paclitaxel 50 nM, unirradiated (FIG. 18I)
[3] = test system: human gastric adenocarcinoma AGS cell line; details: another study; cited from earlier work
[4] = test system: human triple-negative breast cancer (TNBC) BT-549 cells; test: Transmission electron microscopy of cell ultrastructure; format: cell-based; details: paclitaxel 50 nM
Description: Irregularly shaped nuclear membrane is apparent in treated cells in the dark or in the presence of light. Light dose in 30 seconds=0.48 J cm^−2. Concentrations: PSs=50 nM; paclitaxel=50 nM; and, fluororuracil=25 μM.
Cells were cultured to confluence in a petri dish ([…] in diameter), treated for 24 hrs with 500 nM of PS, then irradiated for 2 minutes as above. After 12 photosensitization 24 hours later, cells were scraped gently in the dark, fixed in 2.5% glutaraldehyde in 0.1M [COMPOUND LEFT OUT] buffer, then post-fixed with 1% osmium tetroxide (containing 0.8% [COMPOUND LEFT OUT], treated with 2% aqueous uranyl acetate, and subsequently dehydrated in gradient concentrations (50-100%) of varying ethanol:water mixtures. The resulting pellets were embedded in resin and consequently cut with an ultramicrotome to a 70 nm thickness, then viewed using Tecnai T20 transmission electron microscope.
Transmission electron micrographs of TNBC cells clearly differentiated distinct cellular compartments, in particular, of nuclear components and plasma membrane during treatment as shown in FIG. 19. A typical normal organelle morphology with smooth-contoured cellular plasma membrane is depicted in TNBC cells irradiated with light without treatment with PS nor chemotherapeutic agent (FIG. 19A). […]

[5] = Homo sapiens, BT-549, 24 h, dark
[6] = Homo sapiens, BT-549, 24 h, light

SMILES: CC(=O)O[C@H]1C(=O)[C@@]2(C)[C@H]([C@H](OC(=O)c3ccccc3)[C@]3(O)C[C@H](OC(=O)[C@H](O)[C@@H](NC(=O)c4ccccc4)c4ccccc4)C(C)=C1C3(C)C)[C@]1(OC(C)=O)CO[C@@H]1C[C@@H]2O [paclitaxel, reference compound]
- viability at 0.05 µM ([1]; Homo sapiens, BT-549, 24 h, paclitaxel 50 nM, dark, read-out: cell survival, drug only): 57%
- viability at 0.1 µM [1, 5]: 49%
- viability at 0.01 µM [1, 5]: 64%
- viability at 0.1 µM [1, 6]: 52%
- viability at 0.01 µM [1, 6]: 66%
- average increase in cell survival upon light irradiation compared to unirradiated cells, drug only ([1]; drug alone, light vs dark): 4%
- cell morphology, paclitaxel-treated [2]: shrunk cells and chromatin fragmentation are evident; also recorded: Shrunk cells and chromatin condensation are evident
- cell death modes triggered [3]: apoptosis, autophagy, and mitotic catastrophe were triggered
- ultrastructure, paclitaxel in the dark ([4]; dark (FIG. 19C)): Irregularly shaped nuclear envelope; also recorded: loss of nuclear circularity and formation of chromatin condensation
- ultrastructure, paclitaxel irradiated ([4]; light 0.48 J/cm^2 (FIG. 19E)): smaller nuclei in multi-nucleated cells indicating chromosomal condensation; also recorded: split and fragmented with many atypical vesicular components in the cytosolic compartment
